# Laboratory results from article PMC5548886 (Cancer Medicine, 2017).
# Tested on: locally advanced or metastatic melanoma
# Assay: Antitumor response by RECIST 1.0
# Format: in vivo, human
# Procedure: Medical history and demographics were collected at screening. The safety of study medication was evaluated on the basis of rate, type, severity graded in accordance with NCI CTCAE version 3.0. Safety assessments consisted of collecting all AEs, serious adverse events (SAEs) with their severity and relationship with study drug, and pregnancies. They included the regular monitoring of hematology, blood chemistry and urine performed at the study center/central laboratory and regular assessments of vital signs, physical condition, body weight, performance status, and cardiac data (i.e. electrocardiogram (ECG)/echocardiogram (ECHO)). Abnormalities in clinical laboratory tests that were considered clinically significant by the Investigator were recorded on the AE CRF. Dose‐limiting toxicities (DLTs) were defined for various organ systems and other clinically relevant adverse effects (Table S1). The DLT window was the first cycle while AEs were captured for the entire course of treatment. Evaluation of tumor response was conducted at Baseline, and at the end of every 8 weeks of treatment. Response was assessed using the Response Evaluation Criteria in Solid Tumors (RECIST) 1.0. […] All patients discontinuing from the study for progressive disease were to have their disease progression documented by radiologic evaluation.
# [1] = 33 patients with BRAF-WT melanomas
# [2] = BRAF mutation, All patients, 33 evaluable
# [3] = BRAF mutation, DL 5, 8 evaluable
# [4] = BRAF mutation, DL 6, 10 evaluable
# [5] = BRAF mutation, DLs 1 to 4, 6 evaluable
# [6] = BRAF mutation, DLs 7 and 7.1, 9 evaluable
# [7] = BRAF unspecified/unknown, All patients, 5 evaluable
# [8] = BRAF unspecified/unknown, DL 5, 0 evaluable
# [9] = BRAF unspecified/unknown, DL 6, 2 evaluable
# [10] = BRAF unspecified/unknown, DLs 1 to 4, 1 evaluable
# [11] = BRAF unspecified/unknown, DLs 7 and 7.1, 2 evaluable
# [12] = BRAF wild-type, All patients, 28 evaluable
# [13] = BRAF wild-type, DL 5, 5 evaluable
# [14] = BRAF wild-type, DL 6, 8 evaluable
# [15] = BRAF wild-type, DLs 1 to 4, 8 evaluable
# [16] = BRAF wild-type, DLs 7 and 7.1, 7 evaluable
# [17] = Total, All patients, 66 evaluable
# [18] = Total, DLs 1 to 4, 15 evaluable
# [19] = Total, DLs 7 and 7.1, 18 evaluable
compound,measurement,setting,value
Cn1c(Nc2ccc(C(F)(F)F)cc2)nc2cc(Oc3ccnc(-c4ncc(C(F)(F)F)[nH]4)c3)ccc21 [RAF265],number of CR,[1],one
same,number of PR,[1],two
same,number of PR,39 patients with BRAF V600E mutation,Four
same,number of complete responses (CR),66 evaluable patients,one
same,number of partial responses (PR),66 evaluable patients,seven
same,"objective response rate (ORR), RECIST","66 evaluable patients, all dose levels",12.1%
same,Best response CR or PR,"All patients, 66 evaluable",8 (12.1) n (%)
same,"Best response CR, PR or SD","All patients, 66 evaluable",35 (53) n (%)
same,"Complete response (CR), best overall response",[2],0 n (%)
same,"Partial response (PR), best overall response",[2],4 (12) n (%)
same,"Progressive disease (PD), best overall response",[2],14 (42) n (%)
same,"Stable disease (SD), best overall response",[2],15 (46) n (%)
same,"Complete response (CR), best overall response",[3],0 n (%)
same,"Partial response (PR), best overall response",[3],1 (12.5) n (%)
same,"Progressive disease (PD), best overall response",[3],4 (50) n (%)
same,"Stable disease (SD), best overall response",[3],3 (37.5) n (%)
same,"Complete response (CR), best overall response",[4],0 n (%)
same,"Partial response (PR), best overall response",[4],1 (10) n (%)
same,"Progressive disease (PD), best overall response",[4],2 (20) n (%)
same,"Stable disease (SD), best overall response",[4],7 (70) n (%)
same,"Complete response (CR), best overall response",[5],0 n (%)
same,"Partial response (PR), best overall response",[5],2 (33.3) n (%)
same,"Progressive disease (PD), best overall response",[5],4 (66.7) n (%)
same,"Stable disease (SD), best overall response",[5],0 n (%)
same,"Complete response (CR), best overall response",[6],0 n (%)
same,"Partial response (PR), best overall response",[6],0 n (%)
same,"Progressive disease (PD), best overall response",[6],4 (44) n (%)
same,"Stable disease (SD), best overall response",[6],5 (56) n (%)
same,"Complete response (CR), best overall response",[7],0 n (%)
same,"Partial response (PR), best overall response",[7],1 (20) n (%)
same,"Progressive disease (PD), best overall response",[7],3 (60) n (%)
same,"Stable disease (SD), best overall response",[7],1 (20) n (%)
same,"Complete response (CR), best overall response",[8],0 n (%)
same,"Partial response (PR), best overall response",[8],0 n (%)
same,"Progressive disease (PD), best overall response",[8],0 n (%)
same,"Stable disease (SD), best overall response",[8],0 n (%)
same,"Complete response (CR), best overall response",[9],0 n (%)
same,"Partial response (PR), best overall response",[9],0 n (%)
same,"Progressive disease (PD), best overall response",[9],2 (100) n (%)
same,"Stable disease (SD), best overall response",[9],0 n (%)
same,"Complete response (CR), best overall response",[10],0 n (%)
same,"Partial response (PR), best overall response",[10],0 n (%)
same,"Progressive disease (PD), best overall response",[10],0 n (%)
same,"Stable disease (SD), best overall response",[10],1 (100) n (%)
same,"Complete response (CR), best overall response",[11],0 n (%)
same,"Partial response (PR), best overall response",[11],1 (50) n (%)
same,"Progressive disease (PD), best overall response",[11],1 (50) n (%)
same,"Stable disease (SD), best overall response",[11],0 n (%)
same,"Complete response (CR), best overall response",[12],1 (3.6) n (%)
same,"Progressive disease (PD), best overall response",[12],14 (50) n (%)
same,"Stable disease (SD), best overall response",[12],11 (39.3) n (%)
same,"Complete response (CR), best overall response",[13],0 n (%)
same,"Partial response (PR), best overall response",[13],0 n (%)
same,"Progressive disease (PD), best overall response",[13],2 (40) n (%)
same,"Stable disease (SD), best overall response",[13],3 (60) n (%)
same,"Complete response (CR), best overall response",[14],0 n (%)
same,"Partial response (PR), best overall response",[14],1 (12.5) n (%)
same,"Progressive disease (PD), best overall response",[14],5 (62.5) n (%)
same,"Stable disease (SD), best overall response",[14],2 (25) n (%)
same,"Complete response (CR), best overall response",[15],0 n (%)
same,"Partial response (PR), best overall response",[15],1 (12.5) n (%)
same,"Progressive disease (PD), best overall response",[15],6 (75) n (%)
same,"Stable disease (SD), best overall response",[15],1 (12.5) n (%)
same,"Complete response (CR), best overall response",[16],1 (14.3) n (%)
same,"Partial response (PR), best overall response",[16],0 n (%)
same,"Progressive disease (PD), best overall response",[16],1 (14.3) n (%)
same,"Stable disease (SD), best overall response",[16],5 (71.4) n (%)
same,Best response CR or PR,"DL 5, 13 evaluable",1 (7.7) n (%)
same,"Best response CR, PR or SD","DL 5, 13 evaluable",7 (53.8) n (%)
same,Best response CR or PR,"DL 6, 20 evaluable",2 (10) n (%)
same,"Best response CR, PR or SD","DL 6, 20 evaluable",11 (55) n (%)
same,Best response CR or PR,"DLs 1 to 4, 15 evaluable",3 (20) n (%)
same,"Best response CR, PR or SD","DLs 1 to 4, 15 evaluable",5 (33.3) n (%)
same,Best response CR or PR,"DLs 7 and 7.1, 18 evaluable",2 (11.1) n (%)
same,"Best response CR, PR or SD","DLs 7 and 7.1, 18 evaluable",12 (66.7) n (%)
same,"Complete response (CR), best overall response",[17],1 (1.5) n (%)
same,"Partial response (PR), best overall response",[17],7 (10.6) n (%)
same,"Progressive disease (PD), best overall response",[17],31 (47) n (%)
same,"Stable disease (SD), best overall response",[17],27 (40.9) n (%)
same,"Complete response (CR), best overall response","Total, DL 5, 13 evaluable",0 n (%)
same,"Partial response (PR), best overall response","Total, DL 5, 13 evaluable",1 (7.7) n (%)
same,"Progressive disease (PD), best overall response","Total, DL 5, 13 evaluable",6 (46.1) n (%)
same,"Stable disease (SD), best overall response","Total, DL 5, 13 evaluable",6 (46.1) n (%)
same,"Complete response (CR), best overall response","Total, DL 6, 20 evaluable",0 n (%)
same,"Partial response (PR), best overall response","Total, DL 6, 20 evaluable",2 (10) n (%)
same,"Progressive disease (PD), best overall response","Total, DL 6, 20 evaluable",9 (45) n (%)
same,"Stable disease (SD), best overall response","Total, DL 6, 20 evaluable",9 (45) n (%)
same,"Complete response (CR), best overall response",[18],0 n (%)
same,"Partial response (PR), best overall response",[18],3 (20) n (%)
same,"Progressive disease (PD), best overall response",[18],10 (66.7) n (%)
same,"Stable disease (SD), best overall response",[18],2 (13.3) n (%)
same,"Complete response (CR), best overall response",[19],1 (5.6) n (%)
same,"Partial response (PR), best overall response",[19],1 (5.6) n (%)
same,"Progressive disease (PD), best overall response",[19],6 (33.3) n (%)
same,"Stable disease (SD), best overall response",[19],10 (55.6) n (%)
same,median duration of response,"responders, range 1.4–51.7 months",18.3 months
same,number of PR,unknown BRAF mutation status,one
